Values of other authors, collected in article PMC6838683, “Discovery of Human Signaling Systems: Pairing Peptides to G Protein-Coupled Receptors” (Cell, 2019).
Read-outs that look alike come from different tables or passages of the source. Residues, ends and D or L forms follow the SMILES beside them. No end group written: not given here.

Test system: human GPCRs
Parameters: method as in Guide to Pharmacology database
Conditions: cited from earlier work
Source text: Supplement mmc1.xlsx, sheet "HumanGPCRLigands" | column: pKi_value; pKd_value; pEC50_value; pIC50_value

[1] = receptor SSTR1 (ssr1_human, P30872), max reported value, ref Guide to Pharmacology database
[2] = receptor SSTR2 (ssr2_human, P30874), max reported value, ref Guide to Pharmacology database
[3] = receptor SSTR3 (ssr3_human, P32745), max reported value, ref Guide to Pharmacology database
[4] = receptor SSTR4 (ssr4_human, P31391), max reported value, ref Guide to Pharmacology database
[5] = receptor SSTR5 (ssr5_human, P35346), max reported value, ref Guide to Pharmacology database
[6] = receptor CCR2 (ccr2_human, P41597), max reported value, ref Guide to Pharmacology database
[7] = receptor CCR3 (ccr3_human, P51677), max reported value, ref Guide to Pharmacology database
[8] = receptor CCR5 (ccr5_human, P51681), max reported value, ref Guide to Pharmacology database
[9] = receptor gnrhr_human (GNRHR, P30968), max reported value, ref Guide to Pharmacology database
[10] = receptor OPRK1 (oprk_human, P41145), max reported value, ref Guide to Pharmacology database
[11] = receptor ednra_human (EDNRA, P25101), max reported value, ref Guide to Pharmacology database
[12] = receptor CCR1 (ccr1_human, P32246), max reported value, ref Guide to Pharmacology database
[13] = receptor RXFP3 (rl3r1_human, Q9NSD7), max reported value, ref Guide to Pharmacology database
[14] = receptor RXFP4 (rl3r2_human, Q8TDU9), max reported value, ref Guide to Pharmacology database
[15] = receptor OPRL1 (oprx_human, P41146), max reported value, ref Guide to Pharmacology database
[16] = receptor PTGDR2 (pd2r2_human, Q9Y5Y4), max reported value, ref Guide to Pharmacology database
[17] = receptor PTGDR (pd2r_human, Q13258), max reported value, ref Guide to Pharmacology database
[18] = receptor pe2r3_human (PTGER3), Prostanoid receptors, max reported value, ref Guide to Pharmacology database
[19] = receptor pe2r4_human (PTGER4), Prostanoid receptors, max reported value, ref Guide to Pharmacology database
[20] = receptor LTB4R2 (lt4r2_human, Q9NPC1), max reported value, ref Guide to Pharmacology database

Compound: β-CGRP
- pEC50_value (receptor calcr_human (CALCR), Calcitonin receptors, Class B1 (Secretin), max reported value, ref Guide to Pharmacology database): 7.2

Compound: CST-17
- pKi_value [1]: 9.6
- pKi_value [2]: 9.3
- pKi_value [3]: 9.9
- pKi_value [4]: 9.6
- pKi_value [5]: 10.2

Compound: CCL11
- pIC50_value [6]: 7.7
- pIC50_value [7]: 9
- pKi_value [7]: 10
- pIC50_value [8]: 7.7

Compound: GnRH I
- pEC50_value [9]: 10
- pIC50_value [9]: 8.6
- pKd_value [9]: 8.5
- pKi_value [9]: 8.4

Compound: neuropeptide B-29 (WYKPAAGHSSYSVGRAAGLLSGLRRSPYA; not fully specified; UniProt Q8NG41 25-53, looked up)
- pIC50_value (receptor NPBWR2 (npbw2_human, P48146), max reported value, ref Guide to Pharmacology database): 9
- pIC50_value (receptor npbw1_human (NPBWR1, P48145), max reported value, ref Guide to Pharmacology database): 9.5

Compound: β-endorphin
- pKi_value (receptor OPRD1 (oprd_human, P41143), max reported value, ref Guide to Pharmacology database): 8.3
- pKi_value [10]: 7.9

Compound: apelin-13
- pIC50_value: 9.5

Compound: CC(C)[C@H](NC(=O)[C@@H]1CSSC[C@H](NC(=O)[C@H](CC(=O)O)NC(=O)[C@@H]2CCCN2C(=O)[C@@H](NC(=O)[C@@H](N)CCC(=O)O)[C@@H](C)O)C(=O)N[C@@H](Cc2ccccc2)C(=O)N[C@@H](Cc2c[nH]c3ccccc23)C(=O)N[C@@H](CCCCN)C(=O)N[C@@H](Cc2ccc(O)cc2)C(=O)N1)C(=O)O [urotensin-II]
- pKi_value (receptor UTS2R (ur2r_human, Q9UKP6), max reported value, ref Guide to Pharmacology database): 8.6

Compound: endothelin-3
- pKd_value (receptor ednrb_human (EDNRB, P24530), max reported value, ref Guide to Pharmacology database): 11.5

Compound: CC[C@H](C)[C@@H]1NC(=O)[C@H](Cc2ccc(O)cc2)NC(=O)[C@@H](N)CSSC[C@@H](C(=O)N2CCC[C@H]2C(=O)N[C@@H](CC(C)C)C(=O)NCC(N)=O)NC(=O)[C@H](CC(N)=O)NC(=O)[C@H](CCC(N)=O)NC1=O [oxytocin]
- pKi_value (receptor AVPR1A (v1ar_human, P37288), max reported value, ref Guide to Pharmacology database): 8.3
- pKi_value (receptor AVPR1B (v1br_human, P47901), max reported value, ref Guide to Pharmacology database): 7
- pKi_value (receptor AVPR2 (v2r_human, P30518), max reported value, ref Guide to Pharmacology database): 6.8
- pKi_value (receptor OXTR (oxyr_human, P30559), max reported value, ref Guide to Pharmacology database): 9.6

Compound: neuropeptide FF
- pKi_value (receptor npff1_human (NPFFR1, Q9GZQ6), max reported value, ref Guide to Pharmacology database): 9.9
- pKi_value (receptor npff2_human (NPFFR2, Q9Y5X5), max reported value, ref Guide to Pharmacology database): 9.7

Compound: SRIF-14
- pKi_value [1]: 9.5
- pKi_value [2]: 10.5
- pKi_value [3]: 10
- pKi_value [4]: 9.3
- pKi_value [5]: 9.9

Compound: CXCL11
- pKi_value (receptor CXCR3 (cxcr3_human, P49682), max reported value, ref Guide to Pharmacology database): 10.5

Compound: Big endothelin-1 (CSCSSLMDKECVYFCHLDIIWVNTPEHVVPYGLGSPRS; not fully specified; ends and bridges not checked; UniProt P05305 53-90, looked up)
- pIC50_value [11]: 8.5

Compound: pancreatic polypeptide
- pKi_value (receptor NPY4R (npy4r_human, P50391), max reported value, ref Guide to Pharmacology database): 10.9
- pKi_value (receptor NPY5R (npy5r_human, Q15761), max reported value, ref Guide to Pharmacology database): 8

Compound: CCL5
- pKi_value [12]: 8.2
- pKi_value [7]: 9.3
- pKi_value [8]: 9.7
- pEC50_value (receptor gpr75_human (GPR75), Class A orphans, max reported value, ref Guide to Pharmacology database): 9.6

Compound: kisspeptin-54 (GTSLSPPPESSGSPQQPGLSAPHSRQIPAPQGAVLVQREKDLPNYNWNSFGLRF; ends and bridges not checked; UniProt Q15726 68-121, looked up)
- pKi_value (receptor kissr_human (KISS1R, Q969F8), max reported value, ref Guide to Pharmacology database): 9.5

Compound: CCL2
- pIC50_value [6]: 10.2
- pKi_value [7]: 7.8
- pKi_value [8]: 7.5

Compound: CSCC[C@H](NC(=O)CNC(=O)[C@@H](NC(=O)CNC(=O)[C@@H](NC(=O)CNC(=O)[C@H](CC(N)=O)NC(=O)[C@H](CCCNC(=N)N)NC(=O)[C@H](Cc1ccccc1)NC(=O)[C@@H](N)CO)C(C)C)[C@@H](C)O)C(=O)N[C@@H](CCCCN)C(=O)N[C@@H](CCCCN)C(=O)N[C@H](C(=O)N[C@@H](CO)C(=O)N[C@@H](Cc1ccccc1)C(=O)N[C@@H](CCC(N)=O)C(=O)N[C@@H](CCCNC(=N)N)C(=O)N[C@@H](C)C(=O)N[C@@H](CCCCN)C(=O)N[C@@H](CO)C(=O)O)[C@@H](C)O [neuropeptide S] (H-SFRNGVGTGMKKTSFQRAKS-OH)
- pEC50_value (receptor npsr1_human (NPSR1, Q6W5P4), max reported value, ref Guide to Pharmacology database): 8

Compound: C[C@]12CC[C@@H]3c4ccc(O)cc4CC[C@H]3[C@@H]1CC[C@@H]2O [17β-estradiol]
- pKi_value (receptor gper1_human (GPER1), Estrogen (G protein-coupled) receptors, max reported value, ref Guide to Pharmacology database): 8.5

Compound: relaxin-3
- pKi_value (receptor RXFP1 (rxfp1_human, Q9HBX9), max reported value, ref Guide to Pharmacology database): 8
- pKi_value (receptor RXFP2 (rxfp2_human, Q8WXD0), max reported value, ref Guide to Pharmacology database): 7
- pEC50_value [13]: 9.9
- pIC50_value [13]: 9.6
- pKi_value [13]: 8.9
- pEC50_value [14]: 9
- pIC50_value [14]: 9
- pKi_value [14]: 9

Compound: CCCCCCCC/C=C\C/C=C\C=C/C(=O)CCCC(=O)O [5-oxo-C20:3]
- pEC50_value (receptor OXER1 (oxer1_human, Q8TDS5), max reported value, ref Guide to Pharmacology database): 8

Compound: nociceptin/orphanin FQ
- pEC50_value [15]: 9.8
- pKi_value [15]: 10.4

Compound: CCCCC[C@H](O)/C=C/[C@H]1[C@H](O)CC(=O)[C@@H]1C/C=C\CCCC(=O)O [PGE2]
- pKi_value [16]: 5.3
- pKi_value [17]: 7
- pKi_value (receptor pe2r1_human (PTGER1), Prostanoid receptors, max reported value, ref Guide to Pharmacology database): 8
- pKi_value (receptor pe2r2_human (PTGER2), Prostanoid receptors, max reported value, ref Guide to Pharmacology database): 8.3
- pKd_value [18]: 8.7
- pKi_value [18]: 9.5
- pEC50_value [19]: 6.1
- pKi_value [19]: 9.1
- pKi_value (receptor pf2r_human (PTGFR), Prostanoid receptors, max reported value, ref Guide to Pharmacology database): 6.9
- pKi_value (receptor ta2r_human (TBXA2R), Prostanoid receptors, max reported value, ref Guide to Pharmacology database): 4.5

Compound: α-neoendorphin (YGGFLRKYPK; Alpha-neoendorphin; UniProt P01213 175-184, looked up)
- pKi_value [10]: 10.2

Compound: glucagon
- pKi_value (receptor glp1r_human (GLP1R, P43220), max reported value, ref Guide to Pharmacology database): 7
- pEC50_value (receptor glr_human (GCGR, P47871), max reported value, ref Guide to Pharmacology database): 9

Compound: CCCCC/C=C\C[C@@H](O)/C=C/C=C/C=C\[C@@H](O)CCCC(=O)O [LTB4]
- pEC50_value [20]: 6.8
- pIC50_value [20]: 7.6
- pKd_value [20]: 7.6
- pKi_value (receptor LTB4R (lt4r1_human, Q15722), max reported value, ref Guide to Pharmacology database): 9.4

Compound: CCL3
- pKi_value [12]: 10.2
- pKi_value [8]: 8.9

Compound: NCCc1ccc(O)cc1 [tyramine]
- pEC50_value (receptor taar1_human (TAAR1, Q96RJ0), max reported value, ref Guide to Pharmacology database): 6.7

Compound: O=C(O)CCC(=O)O [succinic acid]
- pEC50_value (receptor sucr1_human (SUCNR1), Succinate receptors, max reported value, ref Guide to Pharmacology database): 4.7

Compound: CCCCC[C@H](O)/C=C/[C@H]1C(=O)C=C[C@@H]1C/C=C\CCCC(=O)O [PGJ2]
- pKi_value [16]: 8.2
- pKi_value [17]: 9

Compound: COc1ccc2[nH]cc(CCNC(C)=O)c2c1 [melatonin]
- pKi_value (receptor mtr1a_human (MTNR1A), Melatonin receptors, max reported value, ref Guide to Pharmacology database): 9.7
- pKi_value (receptor mtr1b_human (MTNR1B), Melatonin receptors, max reported value, ref Guide to Pharmacology database): 9.8

Compound: endothelin-2 (CSCSSWLDKECVYFCHLDIIW; ends and bridges not checked; cysteine pairing not given here; UniProt P20800 49-69, looked up)
- pIC50_value [11]: 8.2

Compound: orexin-A (QPLPDCCRQKTCSCRLYELLHGAGNHAAGILTL; not fully specified; ends and bridges not checked; UniProt O43612 34-66, looked up)
- pEC50_value (receptor HCRTR1 (ox1r_human, O43613), max reported value, ref Guide to Pharmacology database): 10.2
- pEC50_value (receptor HCRTR2 (ox2r_human, O43614), max reported value, ref Guide to Pharmacology database): 10

Compound: C[C@H](CCC(=O)O)[C@H]1CC[C@H]2[C@@H]3CC[C@@H]4C[C@H](O)CC[C@]4(C)[C@H]3CC[C@]12C [lithocholic acid]
- pEC50_value (receptor gpbar_human (GPBAR1), Bile acid receptors, max reported value, ref Guide to Pharmacology database): 7.5
